# According to patent publication US20260335332A1, “STABLE MONOHYDRATE FORM OF AVIBACTAM SODIUM SALT AND PREPARATION METHOD THEREFOR” (KYONGBO PHARM. CO., LTD., priority 2022, published 2026):
# Where two headings read alike, the source gives them in different places.
# How the values were obtained:
# [1] = Comparative accelerated stability test on purity/appearance changes (40° C., 75% relative humidity), HPLC; format: physicochemical; conditions: 6 weeks
# Method: The novel monohydrate form “a” of avibactam sodium salt prepared in Example 1, the monohydrate form “A” and the anhydrous form “B” were each packaged in glass vials and stored at 40° C. and 75% relative humidity for 6 weeks and the purity changes thereof were measured by HPLC at weekly intervals.
# [2] = described in WO2011/042560 A1; cited from earlier work
# [3] = Accelerated stability test on moisture content changes (40° C., 75% relative humidity), Karl-Fischer; format: physicochemical; conditions: glass vial, 6 weeks, Karl-Fischer moisture meter
# Method: The novel monohydrate form “a” of avibactam sodium salt prepared in Example 1 was packaged in a glass vial and stored at 40° C. and 75% relative humidity for 6 weeks and the change in moisture content thereof was measured by a Karl-Fischer moisture meter at weekly intervals for about 6 weeks.
# DSC pattern measurement = format: physicochemical; conditions: 3 to 5 mg, 25 to 500° C. at 10 K/min
# Method: The DSC pattern was measured while heating 3 to 5 mg of the novel monohydrate form “a” of avibactam sodium salt prepared in Example 1 from 25 to 500° C. at a rate of 10 K/min. As a result, the exothermic decomposition peak was confirmed at 227.3° C. […] It was confirmed therefrom that it had different physicochemical properties from the monohydrate form “A”, and the results are shown in FIG. 6.
# TGA pattern measurement = format: physicochemical; conditions: 3 to 5 mg, 30 to 500° C. at 10 K/min; theoretical water content of the monohydrate 5.90%
# Method: The TGA pattern was measured while heating 3 to 5 mg of the novel monohydrate form “a” of avibactam sodium salt prepared in Example 1 from 30 to 500° C. at a rate of 10 K/min. […] In addition, decomposition exotherm accompanied by weight loss at 200 to 220° C. was confirmed and the results are shown in FIG. 5.
# [4] = described in WO2011/042560 A1; cited from earlier work; remark: listed apart in the source
maintenance of monohydrate form (change in moisture content) [3],exothermic decomposition peak (DSC) (DSC pattern measurement),weight loss at 100 to 140° C. (TGA) (TGA pattern measurement),Structure (SMILES),"pharmaceutical stability compared with anhydrous form “B” ([1]; accelerated stability, vs anhydrous form “B”)","stability (purity changes) compared with monohydrate form “A” ([1]; glass vials, HPLC at weekly intervals, vs monohydrate form “A”)",exothermic decomposition peak (DSC) [2],stability during long storage and at higher temperature [4]
maintained the monohydrate form thereof,227.3 °C,5.57%,"NC(=O)[C@@H]1CC[C@@H]2CN1C(=O)N2OS(=O)(=O)O [form “a”, (1R,2S,5R)-7-oxo-6-sulfooxy-1,6-diazabicyclo[3.2.1]octane-2-carboxamide sodium]",pharmaceutically more stable than the form “B”,a more stable form than the monohydrate form “A”,238.9 °C,–
–,–,–,"NC(=O)[C@@H]1CC[C@@H]2CN1C(=O)N2OS(=O)(=O)O [form “E”, (1R,2S,5R)-7-oxo-6-sulfooxy-1,6-diazabicyclo[3.2.1]octane-2-carboxamide sodium]",–,–,–,tends to lose water and hydrolyze during long storage and at higher temperature
